Measurements: patent US20210024542A1 (Torcept Therapeutics, Inc., priority 2018, published 2021)
Several values for one entry are separate records, joined by “and”; a condition that tells them apart may be missing. Equal entries are not always repeated.

Key:
U2OS = experiment: OncoPanel cell proliferation assay, U2OS; format: cell-based, human; conditions: for EC50: read-out: Cell Count EC50; for IC50: read-out: Cell Count IC50; for Cell Count Activity Area: scale 0-10
Protocol: Cells were seeded into 384-well plates and incubated in a humidified atmosphere of 5% CO2 at 37° C. Compounds were added the day following cell seeding. At the same time, a time zero untreated cell plate was generated. After a 3-day incubation period, cells were fixed and stained to allow fluorescence imaging of nuclei. Compounds (1 mM stock solutions) were serially diluted in half-log steps from the highest test concentration ([…]), and assayed over 10 concentrations with a maximum assay concentration of 0.1% DMSO. Automated fluorescence microscopy was carried out using a Molecular Devices ImageXpress Micro XL high-content imager, and images were collected with a 4× objective. 16-bit TIFF images were acquired and analyzed with MetaXpress 5.1.0.41 software.
Cell proliferation was measured by the fluorescence intensity of an incorporated nuclear dye. The output is referred to as the relative cell count, where the measured nuclear intensity is transformed to percent of control (POC) using the following formula: […]
Cellular response parameters were calculated using nonlinear regression to a sigmoidal single-site dose response model:
Where y is a response measured at concentration x, A and B are the lower and upper limits of the response, C is the concentration at the response midpoint (EC50), and D is the Hill Slope (Ref. 1).
GI50 is the concentration needed to reduce the observed growth by half (midway between the curve maximum and the time zero value). […] In rare instances, values <0 or >10 may be observed. […] Curve-fitting, calculations, and report generation was performed using a custom data reduction engine and MathIQ based software (AIM).

[1] = Whole blood concentrations in mice after IP dosing (LC-MS/MS); format: in vivo
Protocol: These determinations were made using protein precipitation, liquid chromatography (LC), and mass spectrometry (MS/MS). Ten μl aliquots of whole blood and matrix calibration standards were distributed in a 96-well plate; 10 μl aliquots of blank matrix for matrix blanks and control blanks were included as controls. Ten μl of water was added to each sample followed by vortexing. One hundred sixty […] of internal standard was added to each sample except the matrix blanks; 160 μl 70:30 water:acetonitrile (ACN) was added to matrix blanks. This was followed by a […]. One hundred fifty μl of the resultant supernatant was then transferred to a new 96-well plate and the samples blown to dryness at 35° C. The resultant product was then reconstituted with 90 μl ACN.

[2] = mouse, in vivo, ip, 10 mg/kg
From the text: (§1) Tumor growth was monitored daily. […] Significance was set at p≤0.05.

[3] = Day 30, 10 mg/kg IP QD
From the text: as §1

[4] = Homo sapiens, 72 h, 3-day incubation
[5] = 2 mg/kg IP QD x 3 days, Day 1, 1.00 hrs
[6] = 2 mg/kg IP QD x 3 days, Day 1, 2.00 hrs
[7] = 2 mg/kg IP QD x 3 days, Day 1, 6.00 hrs
[8] = 2 mg/kg IP QD x 3 days, Day 1, 24.0 hrs
[9] = 2 mg/kg IP QD x 3 days, Day 2, 1.00 hrs
[10] = 2 mg/kg IP QD x 3 days, Day 2, 2.00 hrs
[11] = 2 mg/kg IP QD x 3 days, Day 2, 6.00 hrs
[12] = 2 mg/kg IP QD x 3 days, Day 2, 24.0 hrs
[13] = 2 mg/kg IP QD x 3 days, Day 3, 1.00 hrs
[14] = 2 mg/kg IP QD x 3 days, Day 3, 2.00 hrs
[15] = 2 mg/kg IP QD x 3 days, Day 3, 6.00 hrs
[16] = 2 mg/kg IP QD x 3 days, Day 3, 24.0 hrs
[17] = 10 mg/kg IP QD x 3 days, Day 1, 1.00 hrs
[18] = 10 mg/kg IP QD x 3 days, Day 1, 2.00 hrs
[19] = 10 mg/kg IP QD x 3 days, Day 1, 6.00 hrs
[20] = 10 mg/kg IP QD x 3 days, Day 1, 24.0 hrs
[21] = 10 mg/kg IP QD x 3 days, Day 2, 2.00 hrs
[22] = 10 mg/kg IP QD x 3 days, Day 2, 24.0 hrs

For `CO[C@H]1C[C@@H]2CC[C@@H](C)[C@@](O)(O2)C(=O)C(=O)N2CCCC[C@H]2C(=O)O[C@H]([C@H](C)C[C@@H]2CC[C@@H](O)[C@H](OC)C2)CC(=O)[C@H](C)/C=C(\C)[C@@H](O)[C@@H](OC)C(=O)[C@H](C)C[C@H](C)/C=C/C=C/C=C/1C` [Rapamycin, reference compound], the EC50 (U2OS; [4]) was 0.65 nM, the IC50 (U2OS; [4]) was > 1000 nM and the “Cell Count Activity Area” value (U2OS) was 3.04.

In the case of `CO[C@H]1C[C@@H]2CC[C@@H](C)[C@@](O)(O2)C(=O)C(=O)N2CCCC[C@H]2C(=O)O[C@H]([C@H](C)C[C@@H]2C[C@@H]3C[C@H]2C[C@H]3O)CC(=O)[C@H](C)/C=C(\C)[C@@H](O)[C@@H](OC)C(=O)[C@H](C)C[C@H](C)/C=C/C=C/C=C/1C` [Formula I, 37R-hydroxynorbornylrapamycin], the “Relative cell count (%) Mean” value (U2OS; 1.00E+00 microM) is reported as 50.8%, the “Relative cell count (%) Mean” value (U2OS; 1.00E−01 microM) is reported as 48.5% and the “Relative cell count (%) Mean” value (U2OS; 1.00E−02 microM) is reported as 51.4%. For the same molecule, the “Relative cell count (%) Mean” value (U2OS; 1.00E−03 microM) was 69.9%, the “Relative cell count (%) Mean” value (U2OS; 1.01E−04 microM) was 86.1% and the “Relative cell count (%) Mean” value (U2OS; 3.16E−01 microM) was 43.2%. The “Relative cell count (%) Mean” value (U2OS; 3.17E−02 microM) was 47.8%, the “Relative cell count (%) Mean” value (U2OS; 3.17E−03 microM) was 62.6% and the “Relative cell count (%) Mean” value (U2OS; 3.18E−04 microM) was 75.4%. For the same molecule, the “Relative cell count (%) Mean” value (U2OS; 3.18E−05 microM) was 95.3%, the EC50 (U2OS; [4]) was 0.395 nM and the GI50 (U2OS; Homo sapiens, 72 h, 3-day incubation, read-out: Cell Count GI50) was 2.76 nM. For the same molecule, the IC50 (U2OS; [4]) was 12.1 nM, the “Cell Count Activity Area” value (U2OS) was 4.05 and the “Concentration in Mouse Whole Blood, Mean” value [1, 5] was 529 ng/mL. The “Concentration in Mouse Whole Blood, individual animals 1-3” value (“Concentration … individual animals 1-3” for short) [1, 5] was 519 ng/mL and 530 ng/mL and 537 ng/mL, the “Concentration in Mouse Whole Blood, Mean” value [1, 6] was 431 ng/mL and the “Concentration … individual animals 1-3” value [1, 6] was 668 ng/mL and 392 ng/mL and 233 ng/mL. For the same molecule, the “Concentration in Mouse Whole Blood, Mean” value [1, 7] was 486 ng/mL, the “Concentration … individual animals 1-3” value [1, 7] was 468 ng/mL and 646 ng/mL and 344 ng/mL and the “Concentration in Mouse Whole Blood, Mean” value [1, 8] was 36.6 ng/mL. For the same molecule, the “Concentration … individual animals 1-3” value [1, 8] was 35.8 ng/mL and 48.0 ng/mL and 26.0 ng/mL, the “Concentration in Mouse Whole Blood, Mean” value [1, 9] was 569 ng/mL and the “Concentration … individual animals 1-3” value [1, 9] was 682 ng/mL and 670 ng/mL and 354 ng/mL. For the same molecule, the “Concentration in Mouse Whole Blood, Mean” value [1, 10] was 814 ng/mL, the “Concentration … individual animals 1-3” value [1, 10] was 746 ng/mL and 841 ng/mL and 854 ng/mL and the “Concentration in Mouse Whole Blood, Mean” value [1, 11] was 552 ng/mL. For the same molecule, the “Concentration … individual animals 1-3” value [1, 11] was 537 ng/mL and 803 ng/mL and 315 ng/mL, the “Concentration in Mouse Whole Blood, Mean” value [1, 12] was 47.8 ng/mL and the “Concentration … individual animals 1-3” value [1, 12] was 26.8 ng/mL and 76.5 ng/mL and 40.1 ng/mL. For the same molecule, the “Concentration in Mouse Whole Blood, Mean” value [1, 13] was 946 ng/mL, the “Concentration … individual animals 1-3” value [1, 13] was 968 ng/mL and 885 ng/mL and 986 ng/mL and the “Concentration in Mouse Whole Blood, Mean” value [1, 14] was 583 ng/mL. For the same molecule, the “Concentration … individual animals 1-3” value [1, 14] was 760 ng/mL and 707 ng/mL and 282 ng/mL, the “Concentration in Mouse Whole Blood, Mean” value [1, 15] was 630 ng/mL and the “Concentration … individual animals 1-3” value [1, 15] was 560 ng/mL and 860 ng/mL and 469 ng/mL. For the same molecule, the “Concentration in Mouse Whole Blood, Mean” value [1, 16] was 62.5 ng/mL, the “Concentration … individual animals 1-3” value [1, 16] was 45.7 ng/mL and 92.2 ng/mL and 49.7 ng/mL and the “Concentrations in whole blood over time (in words)” value ([1]; 2 mg/kg or 10 mg/kg IP QD for three days) was “sufficient concentrations in whole blood over time”. For the same molecule, the “Concentration in Mouse Whole Blood, Mean” value [1, 17] was 778 ng/mL, the “Concentration in Mouse Whole Blood, individual animals 4-6” value (from here on “Concentration … individual animals 4-6”) [1, 17] was 744 ng/mL and 736 ng/mL and 853 ng/mL and the “Concentration in Mouse Whole Blood, Mean” value [1, 18] was 2340 ng/mL. For the same molecule, the “Concentration … individual animals 4-6” value [1, 18] was 2390 ng/mL and 2040 ng/mL and 2590 ng/mL, the “Concentration in Mouse Whole Blood, Mean” value [1, 19] was 1726 ng/mL and the “Concentration … individual animals 4-6” value [1, 19] was 1970 ng/mL and 2300 ng/mL and 908 ng/mL. For the same molecule, the “Concentration in Mouse Whole Blood, Mean” value [1, 20] was 273 ng/mL, the “Concentration … individual animals 4-6” value [1, 20] was 357 ng/mL and 320 ng/mL and 141 ng/mL and the “Concentration … individual animals 4-6” value ([1]; 10 mg/kg IP QD x 3 days, Day 2, 1.00 hrs) was “AQL (Original value above quantitation limit (1000 ng/mL)) and 3130 ng/mL and 739 ng/mL”. The “Concentration in Mouse Whole Blood, Mean” value ([1]; 10 mg/kg IP QD x 3 days, Day 2, 1.00 hrs, one animal AQL) was 1935 ng/mL, the “Concentration in Mouse Whole Blood, Mean” value [1, 21] was 2820 ng/mL and the “Concentration … individual animals 4-6” value [1, 21] was 3060 ng/mL and 2660 ng/mL and 2740 ng/mL. The “Concentration … individual animals 4-6” value ([1]; 10 mg/kg IP QD x 3 days, Day 2, 6.00 hrs) was “AQL (Original value above quantitation limit (1000 ng/mL)) (2×) and 811 ng/mL”, the “Concentration in Mouse Whole Blood, Mean” value ([1]; 10 mg/kg IP QD x 3 days, Day 2, 6.00 hrs, two animals AQL) was 811 ng/mL and the “Concentration in Mouse Whole Blood, Mean” value [1, 22] was 335 ng/mL. For the same molecule, the “Concentration … individual animals 4-6” value [1, 22] was 335 ng/mL and 472 ng/mL and 199 ng/mL, the “Concentration … individual animals 4-6” value ([1]; 10 mg/kg IP QD x 3 days, Day 3, 1.00 hrs) was 3490 ng/mL and 3220 ng/mL and the “Concentration … individual animals 4-6” value ([1]; 10 mg/kg IP QD x 3 days, Day 3, 2.00 hrs) was 2530 ng/mL and 2680 ng/mL and 482 ng/mL. For the same molecule, the “Concentration … individual animals 4-6” value ([1]; 10 mg/kg IP QD x 3 days, Day 3, 6.00 hrs) was 966 ng/mL and 2410 ng/mL and 773 ng/mL, the “Concentration … individual animals 4-6” value ([1]; 10 mg/kg IP QD x 3 days, Day 3, 24.0 hrs) was 548 ng/mL and 276 ng/mL and the “Body Wt. % Δ from Baseline, Mean” value [2] was 14.24%. The “Body Wt. % Δ from Baseline, Median” value [2] was 14.91% and the “Percent Survival” value [3] was 100%.
